# Patent publication US8530456B2, “Sonic hedgehog modulators” (President and Fellows of Harvard College, priority 2008, dated 2013)
# Entries after “also recorded” stand apart in the source; their conditions may differ.
# Experiments:
# [1] = molecular target: T1, ShhN protein (rmShh) (Mus musculus, UniProt Q62226); experiment: Small molecule microarray (SMM) screen for ShhN binding; details: screened in triplicate
# T1 construct: Recombinant mouse amino-terminal peptide 461-CF (rmShh); purchased R & D Systems 461-CF
# Method: A screen of the ShhN protein was performed using small molecule microarrays (SMMs) containing a collection of approximately 10,000 diversity-oriented synthesis (DOS) compounds and natural products that has been reported by Koehler and co-workers, in which the entire library was arrayed on a single microscope slide (Bradner, J. E. et al. Chem. Biol. 13, 493-504, 2006). Three SMM slides were used to screen for small molecules that bind the ShhN protein, while two slides were designated as protein-free negative controls. Binding was detected by the use of a biotinylated anti-ShhN antibody, followed by incubation with streptavidin alexa 647. The treated slides were then scanned with a microarray plate reader. The duplicate negative controls eliminated many false positives, while screening in triplicate increased the accuracy of the results. Microarray image analysis was performed with GenePix Pro software (Molecular Devices, Sunnyvale Calif.). […] The software was then used to select all remaining possible positives in the ShhN-treated slides that exceeded our criteria for fluorescence intensity threshold. […]
# The three experimental SMM slides were incubated on parafilm (Alcon, Menasha Wis.) with 300 μL of a 25 μg/mL rmShh solution in a 0.1% BSA in PBS buffer. […] Slides were dried by centrifugation and scanned with a GenePix 4000B microarray plate reader (Axon Instruments, Sunnyvale Calif.). […]
# [2] = molecular target: ShhN (N-terminal fragment of Sonic Hedgehog protein) (Homo sapiens, UniProt Q15465); experiment: Surface plasmon resonance (SPR) binding to immobilized purified ShhN; details: for ShhN binding in SPR: 0.78-25 μM compound
# Method: Biacore™ T100 (GE Healthcare, Uppsala, Sweden) was used to perform the experiments reported herein. Sensor surface preparation and interaction analyses experiments were performed at 25° C. Prior to surface preparation, lyophilized ShhN protein (R&D Systems) was dissolved in either water or PBS buffer, at pH 7.4 and protein purity determined by Nu-Page 4-12% Bis-Tris gel in MOPS buffer with a silver stain sensor preparation.
# ShhN was immobilized onto series S sensor chip CM4 via a standard N-ethyl-N′-(dimethylaminopropyl)carbodiimide/N-hydroxysuccinimide (EDC/NHS) amine coupling procedures (Biacore Sensor Surface Handbook, 2003, version AA, Biacore, Uppsala, Sweden). Shh was diluted to 10 μg/mL in 10 mM sodium acetate pH 5.5 for these procedures and resultant immobilization levels were 1000-1200 R.U.s. Control surfaces were prepared similarly without protein derivatization and utilized as a reference surfaces for compound binding experiments.
# For compound interaction analyses, 0.01 M Hepes, pH 7.4, 0.15 M NaCl, 0.05% Surfactant P20 and 5% DMSO was used for both running and sample buffers. Compound samples were prepared by serial dilution in the range 0.78 uM-25 uM and flowed over control and derivatized surfaces for two minutes at a flow-rate of 80 μL/min. Zero concentration blank buffer cycles were included as negative control samples. Solvent correction procedures were included to compensate for any DMSO related bulk refractive index variations and performed as described previously (Karlsson, R. et al. Anal. Biochem. 278, 1-13, 2000). Non-specific binding effects to sensor surface CM4 were absent for all analyses reported.
# Data analysis was carried out using Biacore T100 evaluation software v1.1.1. Data were prepared by subtraction of reference surface data and blank buffer sample data, a procedure commonly referred to as ‘double referencing’ (Myszka, D. G. J. Mol. Recognit. 12, 1-6, 1999). Solvent correction was then applied as described previously.
# [3] = system: Ptc1-/- MEF cell line (Gli1-beta-galactosidase reporter); experiment: Ptc1-/- cell line beta-galactosidase reporter assay; format: cell-based, mouse
# Method: To explore further the potential mechanism of Shh pathway inhibition involving direct perturbation of the ShhN protein complex, the same compounds were tested in a Ptc1^−/− cell line derived from mouse embryos lacking Ptc1 function. The cell line had both Ptc1 alleles replaced with a β-galoctosidase (β-gal) reporter (Surajit et al., supra). Because Ptc1 inhibits Hh pathway activation by repressing Smo function, removing both Ptc1 alleles results in constitutive pathway activation.
# The ptc−/− cell line was derived from an embryonic mouse fibroblast cell line transfected with a β-galactosidase construct. The cell line was cultured in DMEM with 10% FBS until confluent, and then cells were plated 1:5 into white 96-well optical-bottom plates and allowed to reach a confluent state over 3-4 days while incubating at 37° C. After reaching confluency, the medium was removed from each well, and the cells were treated with test compound (for example, robotnikinin or cyclopamine) (EMD Biosciences, San Diego, Calif.) in DMEM with 0.5% FBS. After a 30 hour incubation, the wells were treated with Beta-Glo assay reagent (Promega, Madison, Wis.) and allowed to be gently agitated for 30 minutes at room temperature. After the agitation was complete, plates were read with an Envision Multi-Label Reader 2102 luminometer.
# [4] = system: ShhL2 cells; experiment: Cell Titer Glo cell viability assay run in parallel in ShhL2 cells; format: cell-based
# Method: (§1) ShhL2 cells are NIHT3 cells that have been transfected with a Gli-luciferase construct, as previously reported (Tapaile, et al. 2000; Surajit, et al., supra). ShhL2 cells (ATCC, Manassas, Va.) were cultured with DMEM (GIBCO, Carlsbad, Calif.), 10% Calf Bovine Serum (ATCC Manassas, Va.), 0.4 mg/ml G-418 (ATCC, Manassas, Va.), 0.15 mg/ml Zeocin (Invitrogen, Carlsbad Calif., Cat. No. R25001) at 37° C. When confluent, the cells were plated 1:5 into white 96-well optical-bottom plates and allowed to reach confluence over approximately 5-7 days. When confluent, the medium was removed and the ShhL2 cells were treated with test compound (for example, robotnikinin or cyclopamine) (EMD Biosciences, San Diego, Calif.) in DMEM with 0.5% Calf Bovine Serum. After incubation for 30 hours, each well was treated with 100 μL of Bright-Glo luciferase assay reagent (Promega, Madison, Wis.) and the plate was read with an Envision Multi-Label Reader 2102 luminometer (Perkin Elmer, Waltham, Mass.). Wells treated in identical fashion were then treated with Cell Titer-Glo reagent (Promega, Madison, Wis.) and read with an Envision Multi-Label Reader 2102 luminometer after being allowed to stand 10 minutes at room temperature.
# [5] = system: Gli2 mRNA; experiment: Gli2 mRNA by qPCR in primary human keratinocytes; format: cell-based
# Text: (§2) Culturing of primary human keratinocytes was previously described (Nguyen, B. C., et al., Genes & Dev. 20:1028-1042 (2006)). The full thickness skin model, EpiDermFT System (MatTek, Ashland), consists of normal, human-derived epidermal keratinocytes and normal, human-derived dermal fibroblasts which have been cultured to form a multilayered, highly differentiated model of the human dermis and epidermis.
# (§3) Gene expression was compared by quantifying mRNA levels by real time RT-PCR. For this, total RNA preparations (1 μg) were used in a reverse transcriptase reaction with a mix of oligonucleotide dT and random hexamer primers, followed by real time PCR with gene-specific primers (Gli1: Qiagen Quantitect PrimerAssay QT00060501; Gli2: Qiagen Quantitect PrimerAssay QT00018648), using an Icycler IQTM real time detection system (Bio-Rad) according to the manufacturer's recommendation, with SYBR Green (Bio-Rad) for detection. Each sample was tested in triplicate, and the results were normalized by real time PCR of the same cDNA with 36B4 primers (36B4 forward primer: 5′-GCAATGTTGCCAGTGTCTGT 3; reverse primer, 5′-GCCTTGACCTTTTCAGCAAG-3′).
# [6] = system: Gli1 and Gli2 transcripts; experiment: Synthetic skin (primary human keratinocytes on collagen matrix): qPCR and histology; format: cell-based
# Text: as §2, §3
# [7] = system: Gli1 (Gli-dependent firefly luciferase reporter, ShhL2 cell line); experiment: ShhL2 (Shh-LIGHT2) Gli-luciferase reporter assay; format: cell-based
# Method: We examined the activity of the new series of AML compounds in Shh-LIGHT2 cells (ATCC, Manassas Va.) (Tapaile, J., et al., 2000 supra), which is an NIH3T3 cell line with a Gli-dependent firefly luciferase reporter.
# Therefore, compounds that repress Gli1 activity would be putative inhibitors of Shh signaling in the cell line in which the experiments were carried out. We examined the activity of the new series of AML compounds in the Shh Light II cell line, or ShhL2 line (ATCC, Manassas Va.) (Tapaile, J., et al., 2000 supra), which is an NIH3T3 line transformed with a Gli-luciferase construct along with zeocin and G418 resistance vectors to select for the transformed strains during normal culturing.
# as §1
# [8] = system: Gli1 mRNA; experiment: Gli1 mRNA by qPCR in primary human keratinocytes; format: cell-based
# Text: as §2, §3
# [9] = system: hair regrowth; experiment: Topical application after depilation, hair regrowth in mice; format: in vivo, mouse
# Method: Eight-week-old C57BL/6J female mice were purchased from Charles River (Boston, Mass.). Mice were housed in community cages at the animal facilities of the Massachusetts General Hospital. All mice were fed water and murine chow ad libitum and kept under 12 h light/dark cycles. Active hair growth (anagen) was induced in the back skin during the telogen phase of the hair cycle by application of the wax-rosin mixture with subsequent depilation, as described before (Paus, R., Stenn, K. S., Link, R. E. (1990). Br. J. Dermatol. 122, 777-784).
# Robotnokinin was dissolved in 10% DMSO and applied every day topically on the depilated skin surface. Mice were kept in individual cages to avoid scratching. Telogen-anagen transformation was studied at the following time points: telogen (unmanipulated skin), anagen (day 8 postdepilation) and very late anagen (day 12 postdepilation) (see FIG. 8a, top panels). In all experiments, the neck region of back skin was harvested parallel to the vertebral line for either heat-mediated epidermal separation and subsequent real time RT-PCR analysis for Gli1 and Gli2 expression levels or embedded for histology on frozen sections (see FIG. 8a, bottom panel, and FIG. 8b).
# ShhN (N-terminal fragment of Sonic Hedgehog protein), sequence (Q15465 24-197): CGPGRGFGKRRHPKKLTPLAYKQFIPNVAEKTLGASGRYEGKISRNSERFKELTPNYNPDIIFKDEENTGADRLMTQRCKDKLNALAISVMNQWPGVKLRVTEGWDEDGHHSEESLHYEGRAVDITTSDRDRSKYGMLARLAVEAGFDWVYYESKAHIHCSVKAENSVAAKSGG
# T1 sequence (Q62226 25-198 limits assumed): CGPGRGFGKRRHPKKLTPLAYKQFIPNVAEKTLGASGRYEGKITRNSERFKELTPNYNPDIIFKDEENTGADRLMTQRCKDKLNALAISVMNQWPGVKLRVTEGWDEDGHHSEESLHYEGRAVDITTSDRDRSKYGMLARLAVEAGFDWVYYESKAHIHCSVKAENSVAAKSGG
smiles,measurement,setting,value
CC1CNC(=O)C(CC(=O)N(CCO)Cc2ccccc2)CC=CCCC(N)C(=O)O1 (centres unmarked) [AML1],SMM screen result,[1],assay positives
same,ShhN binding in SPR,[2],binding to ShhN in a concentration-dependant fashion
"CC1=C2C[C@H]3[C@@H](CC=C4C[C@@H](O)CC[C@@]43C)[C@@H]2CC[C@]12O[C@@H]1C[C@H](C)CN[C@H]1[C@H]2C [cyclopamine, reference compound]",pathway inhibition in Ptc1-/- cell line,[3]; 6.6 μM cyclopamine,significant pathway inhibition
CC1COC(=O)C(N)CCC=CCC(CC(=O)N(CCO)Cc2ccccc2)C(=O)N1 (centres unmarked) [AML2],SMM screen result,[1],assay positives
same,ShhN binding in SPR,[2],binding to ShhN in a concentration-dependant fashion
"O=C(C[C@@H]1C/C=C/CCC(=O)O[C@H](c2ccccc2)CNC1=O)NCc1ccc(Cl)cc1 [robotnikinin, N-(4-chlorobenzyl)-2-((2R,6S,E)-5,12-dioxo-2-phenyl-1-oxa-4-azacyclododec-8-en-6-yl)acetamide]",cytotoxicity,"[4]; Cell Titer Glo, ShhL2 cells, concentration above which cytotoxic",none
same,cytotoxicity,[4]; cell titer viability assay,No significant cytotoxicity was observed
same,ShhN binding in SPR,[2],ShhN-binding capacity at concentrations between 1.56 μM and 25 μM; also recorded: concentration-dependent binding to purified ShhN
same,dissociation time in SPR,[2]; compared with AML1 and AML2,longer dissociation time than AML1 and AML2
same,endogenous Gli2 mRNA level,[5],lowers levels; also recorded: lower levels of endogenous Gli2 mRNA
same,histology of treated synthetic skin,[6],histologically normal
same,Gli1 and Gli2 mRNA levels in synthetic skin,[6]; qPCR after incubation,reduced levels of Gli1 and Gli2 mRNA
same,pathway inhibition in Ptc1-/- cell line,"[3]; 30 h, any concentration tested, normalized for cell titer",no pathway inhibition was observed; also recorded: pathway inhibition was not observed
same,EC50,"[7]; Shh Light2, ShhL2 cell line, Bright Glo luciferase, approximations based on concentration curves",~4 µM
same,concentration giving inhibition comparable to 6.25 μM cyclopamine,[7]; Shh-LIGHT2 cells,above 30 μM
same,inhibition with co-administered purmorphamine,"[7]; Shh-LIGHT2 cells, ShhN-conditioned medium plus 3.6 μM purmorphamine",virtually all of the inhibitory effect was eliminated; also recorded: negligible inhibition
same,Gli1 ECmax,"[7]; ShhL2 cell line, concentration of maximal effect",62.5 µM
same,Shh pathway inhibition / Gli1 suppression,"[7]; ShhN-conditioned medium, 30 h incubation",concentration-dependent inhibition of ShhN-induced pathway activation; also recorded: strong concentration dependent Gli1 suppression
same,"% CI (% cyclopamine inhibition), footnote d","[7]; may be taken relative to mock treatment (comparable to 6 μM cyclopamine), cytotoxic compounds: at highest effective non-cytotoxic concentration",91%
same,effect on Gli1/Gli2 mRNA with co-administered Smo agonists purmorphamine and SAG,[8]; primary human keratinocytes,this effect is blocked
same,endogenous Gli1 mRNA level,"[8]; qPCR, normalized for cell titer",lowers levels
same,hair follicles in skin cross sections,[9]; 12 days post depilation,lack of hair follicles
same,hair regrowth,"[9]; topical, daily, 8 and 12 days post depilation, C57BL/6J mice",blocked hair regrowth
